# Measurements published in PubChem BioAssay (NCI).
#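 Growth conditions: 96-well plates. Treatment: test compound, 48 hours, 5 concentrations. Analysis: linear interpolation between bracketing concentrations; unreached endpoints set to highest concentration. TGI: concentration producing complete growth inhibition.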
# How the values were obtained:
# Experiment in all cases: NCI-60 cell line screen, 48 h
# SK-MEL-5 melanoma = tested on: SK-MEL-5 melanoma
# NCI-H23 lung = tested on: NCI-H23 lung
# NCI-H522 lung = tested on: NCI-H522 lung
# EKVX NSCLC = tested on: EKVX NSCLC
# LOX IMVI melanoma = tested on: LOX IMVI melanoma
# SK-MEL-2 melanoma = tested on: SK-MEL-2 melanoma
# SK-OV-3 ovarian = tested on: SK-OV-3 ovarian
# SF-295 CNS = tested on: SF-295 CNS
# A498 renal = tested on: A498 renal
# HS 578T breast = tested on: HS 578T breast
# CCRF-CEM leukemia = tested on: CCRF-CEM leukemia
# HCT-116 colon = tested on: HCT-116 colon
# MALME-3M melanoma = tested on: MALME-3M melanoma
# SF-268 CNS = tested on: SF-268 CNS
# NCI-H226 lung = tested on: NCI-H226 lung
# RXF 393 renal = tested on: RXF 393 renal
# A549 NSCLC = tested on: A549 NSCLC
# PC-3 prostate = tested on: PC-3 prostate
# COLO 205 colon = tested on: COLO 205 colon
# U251 CNS = tested on: U251 CNS
# TK-10 renal = tested on: TK-10 renal
# HCC-2998 colon = tested on: HCC-2998 colon
# SNB-75 CNS = tested on: SNB-75 CNS
# BT-549 breast = tested on: BT-549 breast
# HT29 colon = tested on: HT29 colon
# SN12C renal = tested on: SN12C renal
# NCI-H460 lung = tested on: NCI-H460 lung
# K-562 leukemia = tested on: K-562 leukemia
# KM12 colon = tested on: KM12 colon
# IGROV1 ovarian = tested on: IGROV1 ovarian
# SR leukemia = tested on: SR leukemia
# UACC-257 melanoma = tested on: UACC-257 melanoma
# UACC-62 melanoma = tested on: UACC-62 melanoma
# SK-MEL-28 melanoma = tested on: SK-MEL-28 melanoma
# CAKI-1 renal = tested on: CAKI-1 renal
# HOP-92 NSCLC = tested on: HOP-92 NSCLC
# SF-539 CNS = tested on: SF-539 CNS
# MCF7 breast = tested on: MCF7 breast
# 786-0 renal = tested on: 786-0 renal
# DU-145 prostate = tested on: DU-145 prostate
# ACHN renal = tested on: ACHN renal
# SNB-19 CNS = tested on: SNB-19 CNS
# MDA-MB-435 = tested on: MDA-MB-435
# MDA-N = tested on: MDA-N
# M14 melanoma = tested on: M14 melanoma
# UO-31 renal = tested on: UO-31 renal
# HCT-15 colon = tested on: HCT-15 colon
# RPMI-8226 leukemia = tested on: RPMI-8226 leukemia
# OVCAR-4 ovarian = tested on: OVCAR-4 ovarian
# HOP-62 NSCLC = tested on: HOP-62 NSCLC
# T-47D breast = tested on: T-47D breast
# NCI/ADR-RES ovarian = tested on: NCI/ADR-RES ovarian
# SW-620 colon = tested on: SW-620 colon
# OVCAR-5 ovarian = tested on: OVCAR-5 ovarian
# MDA-MB-231 breast = tested on: MDA-MB-231 breast
smiles,measurement,setting,value
C/C(=N/NC(=S)Nc1ccc([N+](=O)[O-])cc1)c1cccc(/C(C)=N\NC(=S)Nc2ccc([N+](=O)[O-])cc2)n1,TGI,SK-MEL-5 melanoma,7.29 µM
same,TGI,NCI-H23 lung,12.2 µM
same,TGI,NCI-H522 lung,21.2 µM
same,TGI,EKVX NSCLC,12.8 µM
same,TGI,LOX IMVI melanoma,12.7 µM
same,TGI,SK-MEL-2 melanoma,23.6 µM
same,TGI,SK-OV-3 ovarian,10.7 µM
same,TGI,SF-295 CNS,8.33 µM
same,TGI,A498 renal,9.74 µM
same,TGI,HS 578T breast,> 81.7 µM
same,TGI,CCRF-CEM leukemia,> 55.8 µM
same,TGI,HCT-116 colon,12.2 µM
same,TGI,MALME-3M melanoma,9.13 µM
same,TGI,SF-268 CNS,> 100 µM
same,TGI,NCI-H226 lung,1.84 µM
same,TGI,RXF 393 renal,4.73 µM
same,TGI,A549 NSCLC,11.4 µM
same,TGI,PC-3 prostate,18.7 µM
same,TGI,COLO 205 colon,15.7 µM
same,TGI,U251 CNS,14.6 µM
same,TGI,TK-10 renal,15.7 µM
same,TGI,HCC-2998 colon,21.5 µM
same,TGI,SNB-75 CNS,> 44.3 µM
same,TGI,BT-549 breast,2.36 µM
same,TGI,HT29 colon,16 µM
same,TGI,SN12C renal,14.4 µM
same,TGI,NCI-H460 lung,9.11 µM
same,TGI,K-562 leukemia,> 39.4 µM
same,TGI,KM12 colon,> 35.7 µM
same,TGI,IGROV1 ovarian,8.11 µM
same,TGI,SR leukemia,2.33 µM
same,TGI,UACC-257 melanoma,13.1 µM
same,TGI,UACC-62 melanoma,2.87 µM
same,TGI,SK-MEL-28 melanoma,> 100 µM
same,TGI,CAKI-1 renal,8.06 µM
same,TGI,HOP-92 NSCLC,11.6 µM
same,TGI,SF-539 CNS,2.28 µM
same,TGI,MCF7 breast,3.86 µM
same,TGI,786-0 renal,11.6 µM
same,TGI,DU-145 prostate,> 37.7 µM
same,TGI,ACHN renal,1.14 µM
same,TGI,SNB-19 CNS,17.8 µM
same,TGI,MDA-MB-435,> 38.7 µM
same,TGI,MDA-N,15.1 µM
same,TGI,M14 melanoma,2.7 µM
same,TGI,UO-31 renal,4.97 µM
same,TGI,HCT-15 colon,2.67 µM
same,TGI,RPMI-8226 leukemia,8.8 µM
same,TGI,OVCAR-4 ovarian,49.4 µM
same,TGI,HOP-62 NSCLC,11.1 µM
same,TGI,T-47D breast,24.2 µM
same,TGI,NCI/ADR-RES ovarian,> 29.9 µM
same,TGI,SW-620 colon,16.1 µM
same,TGI,OVCAR-5 ovarian,21.7 µM
same,TGI,MDA-MB-231 breast,17.7 µM
